Laboratory results: patent US9464007B2, “Antifungal wallboards and building materials and methods for the production thereof” (priority 2004, dated 2016)
Converted amounts (≈) assume the structure as drawn.

How the values were obtained:
Format in all cases: cell-based
Stachybotrys chartarum [1] = test: Synergy testing of 2-way mixtures, 24 well plates; details: S. chartarum; rate (FDL) 0.05 mg ai/l
Method: (§1) For synergism testing of the 2-way mixtures 100 ul of each fungicide were filled into the 24 well plates (8 different rates) and 800 ul of 0.3% PDA media containing the spore suspension was added (see above). Different ratios of the 2 fungicide rates were tested at the same time.
(§2) Alternaria tenuissima, Penicillium citrinum, Stachybotrys chartarum, Aspergillus niger and Aureobasidium pullulans were separately cultivated on PDA media to […] sporulation. Spore suspensions were produced for each fungi.
(§3) For the mixtures of different fungicides the synergism was calculated based on the Colby equation, which is described below: […]
(§4) The fungicidal action to be expected, We, for a given combination of two fungicides can be calculated as follows (see COLBY, S. R. “Calculating synergistic and antagonistic response of herbicide combinations”. Weeds 15, pages 20-22; 1967): We=X+[Y×(100−X)/100] wherein:
(§5) If the activity actually observed is greater than the expected value We, there is a synergistic effect.
(§6) All rates below are expressed as mg ai/l (i.e. ppm).

Aureobasidium pullulans [2] = test: Synergy testing of 2-way mixtures, 24 well plates; details: A. pullulans
Method: as §1, §2, §3, §4, §5, §6

Aspergillus niger [3] = test: Synergy testing of 2-way mixtures, 24 well plates; details: A. niger
Method: as §1, §2, §3, §4, §5, §6

Stachybotrys chartarum [4] = test: Liquid culture assay on 24 well plates, solo ai (EC95/MIC)
Method: as §2
(§7) Test method used: liquid culture assay on 24 well plates.
(§8) For solo (i.e. single) ai testing the formulated fungicide (100 ul) was filled into the 24 well plates (8 different rates: 100-0.05 mg ai/l final volume as described above) and 100 ul distilled water was added. Afterwards 800 ul of 0.3% PDA media was added to the plate. The spore suspension of the specific fungi was added to this media in advance containing approx. 100.000 spores/ml. The 24 well plates were sealed and incubated at 24° C.
(§9) Dependent on the growth properties of each organisms, the evaluation was done after 3 to 6 days, when the surface of the check well was covered with mycelium. The evaluation was performed by assessing the growth of the fungi related to the check growth. The results are expressed as % activity relative to the check (values of 0-100% growth). Afterwards the results were converted in % growth inhibition. EC95 values and also MIC (minimal inhibition concentration) values were derived for each compound.
(§10) For each solo compound a graph was drawn of percentage inhibition against the concentration of the fungicide. […] Also the concentration that gave the minimum inhibition concentration was derived as MIC value

Penicillium citrinum = test: as above
Method: as §2, §7, §8, §9, §10

Aureobasidium pullulans [5] = test: as above
Method: as §2, §7, §8, §9, §10

Aspergillus niger [6] = test: as above
Method: as §2, §7, §8, §9, §10

Alternaria tenuissima = test: as above
Method: as §2, §7, §8, §9, §10

N#Cc1c[nH]cc1-c1cccc2c1OC(F)(F)O2 [Fludioxonil]
inh % (FDL alone) (Stachybotrys chartarum [1]): 10% | inh % (FDL alone) (Aureobasidium pullulans [2]; rate (FDL) 0.8 mg ai/l): 10% | inh % (FDL alone) (Aureobasidium pullulans [2]; rate (FDL) 1.6 mg ai/l): 10% | inh % (FDL alone) (Aureobasidium pullulans [2]; rate (FDL) 3.1 mg ai/l): 10% | inh % (FDL alone) (Aureobasidium pullulans [2]; rate (FDL) 12.5 mg ai/l): 10% | inh % (FDL alone) (Aureobasidium pullulans [2]; rate (FDL) 50 mg ai/l): 10% | inh % (FDL alone) (Aureobasidium pullulans [2]; rate (FDL) 100 mg ai/l): 10% | inh % (FDL alone) (Aspergillus niger [3]; rate (FDL) 0.05 mg ai/l): 0% | inh % (FDL alone) (Aspergillus niger [3]; rate (FDL) 0.2 mg ai/l): 30% | inh % (FDL alone) (Aspergillus niger [3]; rate (FDL) 0.8 mg ai/l): 30% | inh % (FDL alone) (Aspergillus niger [3]; rate (FDL) 1.6 mg ai/l): 30% | inh % (FDL alone) (Aspergillus niger [3]; rate (FDL) 3.1 mg ai/l): 30% | inh % (FDL alone) (Aspergillus niger [3]; rate (FDL) 12.5 mg ai/l): 30% | inh % (FDL alone) (Aspergillus niger [3]; rate (FDL) 50 mg ai/l): 30% | inh % (FDL alone) (Aspergillus niger [3]; rate (FDL) 100 mg ai/l): 30% | EC95 (Stachybotrys chartarum [4]; S. chartarum, 24° C., 3-6 days): 0.18 mg ai/l | MIC (Stachybotrys chartarum [4]; Stachybotrys chartarum, read-out: MIC Minimal Inhibition concentration): 0.2 µg/mL (≈ 0.806 µM) | EC95 (Penicillium citrinum; P. citrinum, 24° C., 3-6 days): 0.18 mg ai/l | MIC (Penicillium citrinum; Penicillium citrinum, read-out: MIC Minimal Inhibition concentration): 0.2 µg/mL (≈ 0.806 µM) | EC95 (Aureobasidium pullulans [5]; A. pullulans, 24° C., 3-6 days): >100 mg ai/l | MIC (Aureobasidium pullulans [5]; Aureobasidium pullulans, read-out: MIC Minimal Inhibition concentration): > 100 µg/mL | EC95 (Aspergillus niger [6]; A. niger, 24° C., 3-6 days): >100 mg ai/l | MIC (Aspergillus niger [6]; Aspergillus niger, read-out: MIC Minimal Inhibition concentration): > 100 µg/mL | EC95 (Alternaria tenuissima; A. tenuissima, 24° C., 3-6 days): 1.3 mg ai/l | MIC (Alternaria tenuissima; Alternaria tenuissima, read-out: MIC Minimal Inhibition concentration): 1.6 µg/mL (≈ 6.45 µM)
